Experimental data from patent US20230293524A1, “OTIC FORMULATIONS FOR DRUG-INDUCED OTOTOXICITY” (Spiral Therapeutics Inc, priority 2019, published 2023).
Entries after “also recorded” stand apart in the source; their conditions may differ.

Legend:
stria vascularis cells = assay: Dissociated strial cultures, caspase 3/7 activation with cisplatin; format: cell-based, Sprague-Dawley rats
Protocol: For strial explants, the stria vascularis is isolated from the cochlear tissue and transferred to a clean dish with cell culture media. For dissociated strial cultures, the stria vascularis is pulled off the lateral wall and collected separately. Strial cells are then dissociated using a pipette post-trypsinization and seeded onto Poly-d-lysine or collagen-coated 96-well plates. Cells are grown for 48-72 hours to achieve 80-90% confluency before treatment. […] Following treatment, cells are exposed to the Caspase-Glo 3/7 (Promega) reagent for 30 minutes then […] is read on a plate reader. In addition to the cell culture media described above, strial explants can also be maintained in the following media: MEM with Earle's salts, 15 mM HEPES buffer, 2 mM L-glutamine, 10 mg/L MEM non-essential amino acids, 2.5 mg/L fungizone, 100 units/ml penicillin, 100 mg/L streptomycin, 400 μg/L hydrocortisone, 5 mg/L transferrin, 2 nM triiodothyronine, 5 mg/L insulin, […], 10 μg/L epidermal growth factor, and 10% fetal bovine serum.
Following cochlear dissection, Reissner's membrane and the lateral wall were separated and the stria vascularis was then removed from the lateral wall. […] After incubation, cells were lysed using the Promega caspase 3/7 Glo kit and the intensity of caspase 3/7 were read using Perkin-Elmer Enspire plate reader.

[1] = tested on: spiral ganglion neurons (SGNs); assay: Cochlear explant model: spiral ganglion neuron protection against cisplatin; format: cell-based, Sprague-Dawley rats
Text: (§1) For hair cell and spiral ganglion assessment, postnatal Sprague-Dawley rats (P2-P4) of both sexes are anesthetized with isoflurane and decapitated. Temporal bones are removed and transferred to a cell culture dish with ice-cold Ca^2+/Mg^2+-containing phosphate-buffered saline (PBS; Invitrogen) or cold HBSS medium enriched with glucose. Under microscopic visualization, the cochlear capsules are carefully removed from the temporal bone using forceps and transferred to a new cell culture dish containing ice-cold PBS. The cochleae are then dissected from the cochlear capsule using fine forceps. The stria vascularis is removed from the cochlear tissue and discarded. Dissected cochlear epithelia are transferred to permeable membrane inserts (Millicell organotypic culture plate inserts, Millipore) which are placed into 1 mL of culture media (Dulbecco's modified Eagle's medium (high glucose, Glutamax, 25 mM HEPES) with 10% fetal bovine serum, 1% N2 supplement and 10 units/ml penicillin) in a 6-well plate. Up to 4 cochleae are placed onto each membrane. Explants are placed in a humidified chamber with 5% CO2 at 37° C. for a minimum of 18 hours prior to treatment. Cultures are then pre-treated with test compounds and returned to the incubator for a period of 10 minutes to 48 hours.
(§2) Following the incubation period, cochlear samples are fixed in 4% paraformaldehyde for a minimum of 30 minutes after treatment then permeabilized in 0.5% Triton in PBS (PBST) for 1 hour, followed by overnight incubation at 4° C. in primary antibodies in 10% goat or donkey serum (Sigma). Samples are then rinsed in PBST 2 times for 10 minutes each then incubated in alexa-488 conjugated secondary antibodies for 2 hours at room temperature or overnight at 4° C. in 10% goat or donkey serum (Sigma). Samples are then rinsed 2 times in PBS then incubated in DAPI (1:3000) in PBS for 5 minutes prior to mounting on slides. To evaluate the otoprotective efficacy of the compounds, cochlear samples are immunostained using combination of antibodies generated against markers specific for hair cells (Myosin V1, Myosin VIIA, Parvalbumin, etc.), SGNs (TUJ1, Neurofilament, etc.), f-actin, cell death, cell stress, etc. as well as a nuclear stain to identify cell nuclei.
(§3) Immunostained samples are mounted on glass slides and imaged with an LSM880 laser scanning confocal microscope (Zeiss) or an Operetta high-content imager (Perkin Elmer). The entire explant is imaged for all antibody and nuclear labeling in a 3-dimensional X-Y-Z plane in which the Z-plane consists of a stack imaged at intervals of 0.5-5 μm. The total length of the organ of Corti in each explant is then determined and is divided into 4 equal length regions. Basal, middle and apical hair cells or SGNS are counted at the regions approximately 25%, 50% or 75% of the total cochlear length from the base, respectively. Hair cell survival is determined by counting the number of inner and outer hair cells at these three different regions (base, middle and apex) in each cochlear explant and determining the number of missing/dead hair cells per cochlear region. Hair cell counts are obtained by placing a 200 μm length scale bar parallel to the rows of hair cells at each region and manually counting the total number of outer hair cells (OHCs) and inner hair cells (IHCs) within the 200 μm. Similarly, to evaluate the health and survival of SGNs, the density of SGN fibers or soma is also determined per region by manual counting for same region selected for counting hair cells. Nuclear staining is analyzed to confirm the presence or absence of cell nuclei and to evaluate nuclear health. Image analysis and quantification is performed using Zeiss Zen Blue software, or Perkin Elmer Columbus software.
(§4) Neonatal (P2-P4) Sprague-Dawley rats were used for the experiments described here. Animals were euthanized following anesthesia using isoflurane. Rat cochleae were then dissected in cold HBSS medium enriched with glucose. […]

[2] = Cisplatin binding, % bound
[3] = tested on: outer hair cells (OHCs) and inner hair cells (IHCs); assay: Cochlear explant model: hair cell protection against cisplatin; format: cell-based, Sprague-Dawley rats; settings: for EC100: Rattus norvegicus, read-out: Ex-vivo Efficacy Conc. for complete protection of hair cells (uM)
Text: as §1, §2, §3, §4

[4] = tested on: cisplatin-induced hearing loss (CIHL); assay: 3-day acute CIHL animal model, ABR thresholds; format: in vivo; settings: 3 days
Protocol: Study Design includes: […] Formulation was delivered IT unilaterally (right ear) 30 min prior CIS. There was gross visual necropsy observation performed at termination. Tissue collected for CCG evaluation • A: Cis IP/Vehicle P407 • B: Cis IP/STS 16 mg/ml in P407 • C: Cis IP/OMY-150 16 mg/ml in P407 • D: Cis IP/OMY-150 50 mg/ml in P407

[5] = Cisplatin reaction kinetics by HPLC; settings: 50 μM cisplatin + 50 μM of compound (API) in PBS, pH 7.4, 37° C.
Protocol: Reaction kinetics between Cisplatin and the compound of interest (nucleophile) were monitored by high performance liquid chromatography. Isocratic separation was achieved using a Waters Spherisorb C8 column (4×250 mm, 5 μm, 80 Å). The flow rate was set to 1.00 mL/min. The mobile phase consisted of 5 mM Sodium Octanesulfonate+5 mM Tetrabutyl Ammonium Hydrogen Sulfate+20 mM Potassium Dihydrogen Phosphate adjusted to pH 5.9. Detection was performed at a wavelength of 210 nm.
Reactions were conducted at equimolar concentrations in buffered aqueous media and held at 37° C. Rate constants (k) were determined by monitoring the disappearance of Cisplatin as a function of time.

[6] = Pharmacokinetic study after intratympanic administration; format: in vivo, rats
Protocol: Female rats (Charles River) weighing 200-300 g of approximately 12-16 weeks of age served as subjects (N=4 per group). Prior to any procedures, animals were anesthetized using a combination of xylazine (10 mg/kg), ketamine (50 mg/kg), and acepromazine (1 mg/kg) for up to an hour via the intraperitoneal route. If needed, an intraoperative booster was administered intraperitoneal representing a one-tenth of the original dose.
Intratympanic injection—Each animal was positioned so that the head was tilted at an angle to favor injection towards the round window niche. […] Formulations were delivered using a perfusion pump at the rate of 2 μL/sec. Contact with the round window membrane was maintained for 30 minutes by placing the animal in a recumbent position. During the procedure and until recovery, animals were placed on a temperature controlled (40° C.) heating pad until consciousness was regained at which time they were returned to the vivarium.
Perilymph sampling procedure—The skin behind the ear of anesthetized rats was shaved and disinfected with povidone-iodine. An incision was then made behind the ear, and muscles were carefully retracted from over the bulla. A hole was drilled through the bulla using a dental burr so that the middle ear was exposed and accessed. The cochlea and the round window membrane were visualized under a stereo surgical microscope. The basal turn of bulla was cleaned by using small cotton ball. A unique microhole was hand drilled through the bony shell of the cochlea (cochlear capsule) adjacent to the round window. Perilymph (about 2 μL) was then collected using a microcapillary inserted into the cochlear scala tympani. Perilymph samples were added to a vial containing 18 μL of acetonitrile/water, stored at −80° C. until analysis.
Cochlear epithelium sampling procedure—Under a dissection scope, the bulla was opened, and the cochlea was exposed by removing all surrounding muscles, blood vessels and bone tissues. Holding the bulla, the cochlear wall bony structure was removed working from the base to the apex of the cochlea, exposing the organ of Corti. The exposed cochlear epithelium was gently dabbed with cotton swab to remove excess of liquid from tissue, carefully transferred to labelled tube. Each 2-mL plastic tube that contained acid washed 2.8 mm stainless steel beads was pre-weighed. The tubes were reweighed after adding cochlea epithelium and weights were recorded. All cochlea epithelium samples were placed in dry ice immediately after collection and stored at −80° C. prior to analysis.
Plasma sampling procedure—Blood samples were collected by cardiac puncture into labeled micro-tubes, containing lithium heparin as anticoagulant. Plasma were immediately harvested from the blood by centrifugation and collection for supernatants. All plasma samples were stored at −80° C. prior to analysis.
Samples were extracted by protein precipitation, then vortexed and centrifuged. The supernatant was collected and diluted with two folds of water. A high-performance liquid chromatography system (Agilent 1200 series) with Waters Cortecs C18 Plus column (50*4.6 mm, 2.7 μm) were used. The flow rate was set at 0.700 mL/min. A gradient method with an analytical run time of 5 minutes was used. Mobile phase A consisted of 0.01% ammonium formate, 0.03% formic acid in water. Mobile phase B consisted of 0.01% ammonium formate, 0.03% formic acid in acetonitrile: methanol (70:30, v/v). The gradient began with 30% B, stepped to 70% B at 2.75 minutes and held for 1 minute and then stepped back to 30% B to re-equilibrate the column.
Ionizations and detection of analyte and internal standard were performed on a triple quadruple mass spectrometer, API 5500 Q-Trap equipped with Turbo IonSpray@, from SCIEX (Toronto, Canada). Electro spray ionization (ESI) mass spectra was operated in the positive ion mode. Carbutamide was used as the internal standard (IS). […]

[7] = 16 mg/ml in P407, IT 30 min prior CIS 12 mg/kg (IP)
[8] = 1.5 hour pretreatment followed by co-treatment at different concentrations with 10 μM cisplatin

Compound | strial cell protection (stria vascularis cells) | SGN protection ([1]; ex-vivo cochlear explants) | Cisplatin Binding % bound (in 30 min) at 1:10 ratio [2] | EC100 [3] | OHC protection ([3]; ex-vivo cochlear explants) | protection of ABR thresholds [4, 7] | protection of ABR thresholds ([4]; 50 mg/ml in P407, IT 30 min prior CIS 12 mg/kg (IP)) | k [5] | protection of spiral ganglion neurons against cisplatin [1, 8] | In vivo PK in Cochlear Epithelium (24 h after dosing) [6] | plasma exposure after IT injection ([6]; single IT injection) | perilymph and cochlear epithelium exposure after IT injection ([6]; single IT injection, MCT and/or poloxamer formulation) | protection of hair cells against cisplatin [3, 8] | Ex-vivo Efficacy Conc. for complete protection of hair cells ([3]; ex vivo cochlear explants, cisplatin)
O=C(O)c1c[nH]c(=S)[nH]c1=O [5-carboxy-2-thiouracil] | good protection | good protection | 95% | 50 to 100 µM | good protection | – | – | – | – | – | – | – | – | –
O=c1cc(-c2ccccc2)[nH]c(=S)[nH]1 [OMY-150, 6-phenyl-2-thiouracil] | – | – | 97% | 50 µM | – | strong protection | almost complete recovery | 0.50 M⁻¹ s⁻¹ | complete protection | ~1000 ng/gm CE | significantly lower (e.g. up to 10 times or more) plasma exposure than OMY-141; also recorded: lower plasma exposure than sodium thiosulfate (STS) | good perilymph and cochlear epithelium exposure | complete protection | –
O=S([O-])([O-])=S.[Na+].[Na+] [STS, sodium thiosulfate, reference compound] | – | – | 50% | – | – | less protection than in previous studies | – | 0.52 M⁻¹ s⁻¹ | – | ~1100 ng/gm CE | – | – | – | 100 µM
